For two compounds, Ki results are on record in ChEMBL document CHEMBL1133625, “Crystal structures of human factor Xa complexed with potent inhibitors” (J Med Chem, 2000).

The target in one experiment is Prothrombin (Homo sapiens, UniProt P00734). The experiment can be described thus: Binding affinity on Thrombin.
In a further experiment the target is T1, Trypsin II (Bos taurus, UniProt Q29463).
T1 sequence (Q29463 whole entry): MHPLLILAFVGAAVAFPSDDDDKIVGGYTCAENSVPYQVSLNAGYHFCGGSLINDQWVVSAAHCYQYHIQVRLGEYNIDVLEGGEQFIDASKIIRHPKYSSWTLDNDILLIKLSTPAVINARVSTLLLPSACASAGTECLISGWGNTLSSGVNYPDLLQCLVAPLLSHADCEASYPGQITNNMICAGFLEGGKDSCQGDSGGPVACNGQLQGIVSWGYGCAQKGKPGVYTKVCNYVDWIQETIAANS
Put plainly: Binding affinity on bovine pancreatic trypsin enzyme.

The Ki is the dissociation constant of the complex between target and ligand, obtained from inhibition or displacement. For `O=C1[C@@H](NS(=O)(=O)c2cc3ncccc3s2)CCN1Cc1cc2cc[nH]cc-2n1`, the Ki at Prothrombin was greater than 4 µM; on Trypsin II it was greater than 2.9 µM.
On to `Nc1nccc2ccc(CN3CC[C@H](NS(=O)(=O)c4cc5ncccc5s4)C3=O)cc12`, for which the Ki at Trypsin II is greater than 2.9 µM.
